From patent publication US7579356B2, “Thia-tetraazaacenaphthylene kinase inhibitors” (Janssen Pharmaceutica NV, priority 2005, dated 2009)

Columns and labels:
EGFR = molecular target: T1, EGFR (Homo sapiens, UniProt P00533); experiment: EGFR Kinase Assay; format: biochemical; settings: for IC50: GST-EGFR, ATP 5 μM; for inhibition at 2 µM: test concentration of 2 μM, compounds without an IC50, read-out: EGFR inhibition in percent
T1 construct: The intracellular portion of EGFR started at nucleotide 2189 (corresponding to amino acid 667) and ended at the termination codon; made in house; host or cells: Sf9 insect cells (baculovirus)
Source text: The EGFR kinase used was a fusion of Glutathione-S-Transferase (GST) and a PCR amplified intracellular portion of EGFR (Accession Number NM_005228). The intracellular portion of EGFR started at nucleotide 2189 (corresponding to amino acid 667) and ended at the termination codon. The portion was PCR amplified with primers that added the lambda attB sequences to each end, recombined into an entry vector, then into a GST destination vector (as described in Gateway Technologies Manual by Invitrogen Corporation, Carlsbad, Calif.).
The destination vector was recombined in the DH10BAC strain of bacteria to produce a bacmid. The bacmid was transfected into Sf 9 cells and the supernatant containing the baculovirus was collected. The GSTEGFR protein was purified using large cultures of Sf 9 cells infected with stock virus. After an appropriate period of time, the cells were collected and lysed. The GSTEGFR was then purified from the lysate on Glutathione-Sepharose columns (as described by Amersham Biosciences, Buckinghamshire, United Kingdom).
The EGFR substrate was prepared by biotinylating polyGluTyr (128 mg) (Sigma, St. Louis, Mo.) in a 1×PBS buffer incubated together with a 12-fold molar excess of Sulfo-NHS-LC-Biotin on ice for at least 2 hrs. The free biotin was separated from the biotinylated polyGluTyr on a gel filtration column.
A mixture of a 10× kinase buffer (500 mM Tris at pH 8.0, 100 mM Magnesium Chloride and 1 mM Sodium Vanadate), DTT (1 mM final from 500 mM stock), ATP (5 μM final from 10 mM stock), biotinylated polyGluTyr (10 μg/μL stock), γ-^33P ATP (10 μCl/μL stock) and water was added to each well (for a total of 90 μL/well) of a Streptavidin Flashplate (Perkin Elmer, Wellesley, Mass.).
Test compound in 100% DMSO (2 μL) was added to the appropriate wells. Diluted GSTEGFR (1:300 dilution in 50 mM Tris at pH 8.0 and 0.1% bovine serum albumin) (10 μL) was added to the wells to initiate the reactions.
The plates were incubated at 30° C. for 1 hr with shaking. The reacted contents were removed and the plates were sequentially washed three times with a 1×PBS stop buffer (300 μL without Magnesium and Calcium) and 100 mM EDTA. After the final wash, the same stop buffer (200 μL) was added to the wells. The plates were then sealed and read on the TopCount scintillation counter.
Test compounds were assayed in triplicate at 16 concentrations at half-log dilutions starting at 200 uM. A maximum and minimum signal for the assay was determined on each plate. The percent inhibition of a test compound was calculated according to the formula: […]
For a series of test concentrations, the IC50 was derived by graphing percent inhibition against the log of the concentrations tested for a given compound. For those compounds without an IC50, the inhibition values in percent are shown at a test concentration of 2 μM. For compounds with multiple values, each value represents a separate assay result.

HER-2 = molecular target: T2, HER-2 (Homo sapiens, UniProt P04626); experiment: HER-2 Kinase Assay; format: biochemical; settings: value in parentheses
T2 construct: His6 with thrombin site (N); purchased Proqinase (Freiburg, Germany)
Method: The HER-2 kinase used was purified at Proqinase (Freiburg, Germany) from a construct that consisted of a fusion of GST (Glutathione-S-Transferase), HIS6-Thrombin and the nucleotides encoding amino acids 679 to 1255 of HER-2 (Accession Number M11730).
A mixture of a 10× kinase reaction buffer (600 mM Hepes at pH 7.5, 30 mM Magnesium Chloride, 0.03 mM Sodium Vanadate and 500 μg/mL PEG 20,000), DTT (1.2 mM final from a 10 mM stock), APT (1 μM from a 10 mM stock), biotinylated polyGluTyr (1.5 ng/μL final from stock of 1 μg/μL) prepared by Upstate Biotechnologies, Lake Placid, N.Y.), Manganese Chloride (3 mM final from a 1 M stock), γ-^33P-ATP (10 μCl/μL stock) and water (70 μL/well) was added to each well of a Streptavidin Flashplate (Cat. # SMP103, NEN, Boston, Mass.).
Test compound stock (1 μL) was added to the appropriate wells. Diluted GSTHER2 kinase (6.7 ng/μL diluted into 50 mM Tris-HCl at pH 8.0 and 0.1% bovine serum albumin) (30 μL) was added (total volume of 200 ng/well) to initiate the reactions.
The reaction plates were incubated at 30° C. for 1 hr. The reaction was terminated by aspirating the reaction mixture from the plate wells and washing the wells three times with a 1×PBS stop buffer (300 μL) and 100 mM EDTA. After the final wash, the same stop buffer (200 μL) was again added to the wells. The plates were then sealed and read on the TopCount scintillation counter.
The Her-2 inhibition values were derived according to the procedure described in Example 164 and are shown as percent in Table 4 at a test concentration of 1 μM. For those compounds with an IC50, the IC50 value in μM is shown in parentheses. For compounds with multiple test values, each value represents a separate assay result.

COc1cc(NC(=O)c2sc3ncnc4c3c2NC(=O)N4c2cccc(Oc3ccccc3)c2)ccc1CN1CCOCC1 [Cpd 200, 4-oxo-5-(3-phenoxy-phenyl)-4,5-dihydro-3H-1-thia-3,5,6,8-tetraaza-acenaphthylene-2-carboxylic acid (3-methoxy-4-morpholin-4-ylmethyl-phenyl)-amide]
IC50 (EGFR): 89 nM | IC50 (HER-2): 130 nM

CN1CCC(NC(=O)c2sc3ncnc4c3c2NC(=O)N4c2ccc(Sc3ccccc3)cc2)CC1 [Cpd 191, 4-oxo-5-(4-phenylsulfanyl-phenyl)-4,5-dihydro-3H-1-thia-3,5,6,8-tetraaza-acenaphthylene-2-carboxylic acid (1-methyl-piperidin-4-yl)-amide]
IC50 (EGFR): 18 nM | IC50 (HER-2): 62 nM

O=C(Nc1ccc(CN2CCCC(CO)C2)cc1)c1sc2ncnc3c2c1NC(=O)N3c1ccc(Oc2ccccc2)cc1 (stereo not shown) [Cpd 256, 4-oxo-5-(4-phenoxy-phenyl)-4,5-dihydro-3H-1-thia-3,5,6,8-tetraaza-acenaphthylene-2-carboxylic acid [4-(3-hydroxymethyl-piperidin-1-ylmethyl)-phenyl]-amide]
IC50 (EGFR): 321 nM | IC50 (HER-2): 450 nM

O=C(Nc1ccc(CN2CCCCC2)cc1)c1sc2ncnc3c2c1NC(=O)N3c1ccc(Oc2cccc(F)c2)c(Cl)c1 [Cpd 160, 5-[3-chloro-4-(3-fluoro-phenoxy)-phenyl]-4-oxo-4,5-dihydro-3H-1-thia-3,5,6,8-tetraaza-acenaphthylene-2-carboxylic acid (4-piperidin-1-ylmethyl-phenyl)-amide]
IC50 (EGFR): 23 nM | IC50 (HER-2): 155 nM

4-oxo-5-(4-phenoxy-phenyl)-4,5-dihydro-3H-1-thia-3,5,6,8-tetraaza-acenaphthylene-2-carboxylic acid (4-morpholin-4-ylmethyl-3-trifluoromethoxy-phenyl)-amide [Cpd 240]
IC50 (EGFR): 31 nM | IC50 (HER-2): 227 nM

CN1CCC(NC(=O)c2sc3ncnc4c3c2NC(=O)N4c2ccc(Oc3ccccc3)cc2)CC1 [Cpd 211, 4-oxo-5-(4-phenoxy-phenyl)-4,5-dihydro-3H-1-thia-3,5,6,8-tetraaza-acenaphthylene-2-carboxylic acid (1-methyl-piperidin-4-yl)-amide]
IC50 (EGFR): 63 nM | IC50 (HER-2): 518 nM

O=C(Nc1ccc(CN2CCOCC2)cc1)c1sc2ncnc3c2c1NC(=O)N3c1ccc(OCc2cccs2)c(Cl)c1 [Cpd 226, 5-[3-chloro-4-(thiophen-2-ylmethoxy)-phenyl]-4-oxo-4,5-dihydro-3H-1-thia-3,5,6,8-tetraaza-acenaphthylene-2-carboxylic acid (4-morpholin-4-ylmethyl-phenyl)-amide]
IC50 (EGFR): 33 nM | IC50 (HER-2): 27 nM

CN1CCN(Cc2ccc(NC(=O)c3sc4ncnc5c4c3NC(=O)N5c3ccc(OCc4cccc(F)c4)c(Cl)c3)cc2)CC1 [Cpd 252, 5-[3-chloro-4-(3-fluoro-benzyloxy)-phenyl]-4-oxo-4,5-dihydro-3H-1-thia-3,5,6,8-tetraaza-acenaphthylene-2-carboxylic acid [4-(4-methyl-piperazin-1-ylmethyl)-phenyl]-amide]
IC50 (EGFR): 161 nM | IC50 (HER-2): 610 nM

COc1cc(NC(=O)c2sc3ncnc4c3c2NC(=O)N4c2ccc(Oc3ccccc3)cc2)ccc1CN1CCCCC1 [Cpd 242, 4-oxo-5-(4-phenoxy-phenyl)-4,5-dihydro-3H-1-thia-3,5,6,8-tetraaza-acenaphthylene-2-carboxylic acid (3-methoxy-4-piperidin-1-ylmethyl-phenyl)-amide]
IC50 (EGFR): 22 nM | IC50 (HER-2): 42 nM

CN1CCC(NC(=O)c2sc3ncnc4c3c2NC(=O)N4c2ccc3c(cnn3Cc3cccc(F)c3)c2)CC1 [Cpd 177, 5-[1-(3-fluoro-benzyl)-1H-indazol-5-yl]-4-oxo-4,5-dihydro-3H-1-thia-3,5,6,8-tetraaza-acenaphthylene-2-carboxylic acid (1-methyl-piperidin-4-yl)-amide]
IC50 (EGFR): 75 nM | IC50 (HER-2): 1500 nM

O=C(Nc1ccc(CN2CCCCC2)cc1)c1sc2ncnc3c2c1NC(=O)N3c1cccc(Oc2ccccc2)c1 [Cpd 197, 4-oxo-5-(3-phenoxy-phenyl)-4,5-dihydro-3H-1-thia-3,5,6,8-tetraaza-acenaphthylene-2-carboxylic acid (4-piperidin-1-ylmethyl-phenyl)-amide]
IC50 (EGFR): 39 nM | IC50 (HER-2): 175 nM

COc1cc(NC(=O)c2sc3ncnc4c3c2NC(=O)N4c2ccc(OCc3ccco3)c(Cl)c2)ccc1CN1CCCCC1 [Cpd 243, 5-[3-chloro-4-(furan-2-ylmethoxy)-phenyl]-4-oxo-4,5-dihydro-3H-1-thia-3,5,6,8-tetraaza-acenaphthylene-2-carboxylic acid (3-methoxy-4-piperidin-1-ylmethyl-phenyl)-amide]
IC50 (EGFR): 16 nM | IC50 (HER-2): 83 nM

O=C(Nc1ccc(N2C(=O)Nc3c(C(=O)Nc4ccc(CN5CCCCC5)cc4)sc4ncnc2c34)cc1)c1ccccc1 [Cpd 249, 5-(4-benzoylamino-phenyl)-4-oxo-4,5-dihydro-3H-1-thia-3,5,6,8-tetraaza-acenaphthylene-2-carboxylic acid (4-piperidin-1-ylmethyl-phenyl)-amide]
inhibition at 2 µM (EGFR): 9% | IC50 (HER-2): > 100000 nM

O=C(Nc1ccc(CN2CCOCC2)cc1)c1sc2ncnc3c2c1NC(=O)N3c1ccc(Oc2cccc(F)c2)c(Cl)c1 [Cpd 162, 5-[3-chloro-4-(3-fluoro-phenoxy)-phenyl]-4-oxo-4,5-dihydro-3H-1-thia-3,5,6,8-tetraaza-acenaphthylene-2-carboxylic acid (4-morpholin-4-ylmethyl-phenyl)-amide]
IC50 (EGFR): 26 nM | IC50 (HER-2): 82 nM

O=C(Nc1ccc(CN2CCCCC2)cc1)c1sc2ncnc3c2c1NC(=O)N3c1ccc2nc(Cc3cccc(F)c3)[nH]c2c1 [Cpd 192, 5-[2-(3-fluoro-benzyl)-3H-benzoimidazol-5-yl]-4-oxo-4,5-dihydro-3H-1-thia-3,5,6,8-tetraaza-acenaphthylene-2-carboxylic acid (4-piperidin-1-ylmethyl-phenyl)-amide]
IC50 (EGFR): 410 nM | IC50 (HER-2): > 1000 nM

CCOC(=O)c1sc2ncnc3c2c1NC(=O)N3C(C)c1ccc(Br)cc1 (stereo not shown) [Cpd 179, 5-[1-(4-bromo-phenyl)-ethyl]-4-oxo-4,5-dihydro-3H-1-thia-3,5,6,8-tetraaza-acenaphthylene-2-carboxylic acid ethyl ester]
inhibition at 2 µM (EGFR): 0.7% | IC50 (HER-2): > 100000 nM

CN1CCN(NC(=O)c2sc3ncnc4c3c2NC(=O)N4c2ccc(Oc3ccccc3)cc2)CC1 [Cpd 215, 4-oxo-5-(4-phenoxy-phenyl)-4,5-dihydro-3H-1-thia-3,5,6,8-tetraaza-acenaphthylene-2-carboxylic acid (4-methyl-piperazin-1-yl)-amide]
IC50 (EGFR): 121 nM | IC50 (HER-2): 4460 nM
